Experiments:
Assay in all cases: Radiometric protein kinase assay (33PanQinase), Assay Condition A (thiol containing)
Assay type in all cases: biochemical
CDK12 wt/CycK = CDK12 wt/CycK (Homo sapiens (Human), UniProt Q9NYV4); conditions: thiol containing (1.2 mM DTT), ATP 0.3 μM
In short: (§1)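 Recombinant human kinases assayed radiometrically (33PanQinase) with 33P-ATP incorporation into substrate, 60 min at 30° C, thiol-containing buffer, 1% DMSO final. Ten concentrations from 1×10^−04M to 3×10^−09M tested in singlicate. Residual activity normalized to no-enzyme and no-inhibitor controls; IC50 by least-squares fit.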

CDK7/CycH/MAT1 = CDK7/CycH/MAT1 (Homo sapiens (Human), UniProt P50613); conditions: thiol containing (1.2 mM DTT), ATP 3.0 μM
In short: as §1

CDK2/CycA2 = CDK2/CycA2 (Homo sapiens (Human), UniProt P24941); conditions: thiol containing (1.2 mM DTT), ATP 0.3 μM
In short: as §1

CDK12 wt/CycK, sequence (Q9NYV4 whole entry): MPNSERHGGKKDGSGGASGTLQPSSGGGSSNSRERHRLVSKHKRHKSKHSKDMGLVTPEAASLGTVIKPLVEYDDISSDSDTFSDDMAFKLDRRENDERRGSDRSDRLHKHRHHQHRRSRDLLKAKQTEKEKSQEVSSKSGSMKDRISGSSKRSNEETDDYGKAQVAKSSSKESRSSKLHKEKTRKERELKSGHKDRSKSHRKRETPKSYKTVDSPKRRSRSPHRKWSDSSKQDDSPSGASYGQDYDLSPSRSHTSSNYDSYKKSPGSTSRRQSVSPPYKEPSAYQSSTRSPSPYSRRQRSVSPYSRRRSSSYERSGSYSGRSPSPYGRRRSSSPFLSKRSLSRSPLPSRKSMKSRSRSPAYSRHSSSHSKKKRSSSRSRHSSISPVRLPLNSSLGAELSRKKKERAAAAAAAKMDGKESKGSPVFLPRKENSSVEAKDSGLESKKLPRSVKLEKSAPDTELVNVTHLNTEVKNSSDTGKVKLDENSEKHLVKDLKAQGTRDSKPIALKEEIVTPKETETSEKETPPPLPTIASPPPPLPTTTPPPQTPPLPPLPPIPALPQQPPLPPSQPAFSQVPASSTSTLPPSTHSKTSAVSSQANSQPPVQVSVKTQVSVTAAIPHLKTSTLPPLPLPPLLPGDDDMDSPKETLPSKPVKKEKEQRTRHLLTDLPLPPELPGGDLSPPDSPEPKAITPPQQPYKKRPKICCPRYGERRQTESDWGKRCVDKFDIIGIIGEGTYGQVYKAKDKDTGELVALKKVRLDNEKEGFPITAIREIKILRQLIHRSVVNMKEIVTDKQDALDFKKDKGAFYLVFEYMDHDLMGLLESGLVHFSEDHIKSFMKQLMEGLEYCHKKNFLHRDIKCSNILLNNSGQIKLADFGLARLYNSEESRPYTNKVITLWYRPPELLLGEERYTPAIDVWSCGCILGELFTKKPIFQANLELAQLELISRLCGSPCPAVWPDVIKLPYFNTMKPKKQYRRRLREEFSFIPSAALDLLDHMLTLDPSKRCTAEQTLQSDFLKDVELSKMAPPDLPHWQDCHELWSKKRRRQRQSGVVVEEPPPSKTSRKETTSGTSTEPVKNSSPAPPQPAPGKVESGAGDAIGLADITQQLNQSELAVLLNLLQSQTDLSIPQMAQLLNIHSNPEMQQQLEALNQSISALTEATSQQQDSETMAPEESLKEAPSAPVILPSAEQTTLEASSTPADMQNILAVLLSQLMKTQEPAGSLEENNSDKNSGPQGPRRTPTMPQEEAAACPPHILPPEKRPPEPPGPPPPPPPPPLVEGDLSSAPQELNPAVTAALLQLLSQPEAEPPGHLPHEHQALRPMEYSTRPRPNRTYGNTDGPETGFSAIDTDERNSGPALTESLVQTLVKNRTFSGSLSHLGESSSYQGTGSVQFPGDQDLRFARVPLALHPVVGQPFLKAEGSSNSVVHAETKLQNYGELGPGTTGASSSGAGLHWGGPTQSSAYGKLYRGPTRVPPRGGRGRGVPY
CDK12 wt/CycK, sequence (O75909 whole entry partner): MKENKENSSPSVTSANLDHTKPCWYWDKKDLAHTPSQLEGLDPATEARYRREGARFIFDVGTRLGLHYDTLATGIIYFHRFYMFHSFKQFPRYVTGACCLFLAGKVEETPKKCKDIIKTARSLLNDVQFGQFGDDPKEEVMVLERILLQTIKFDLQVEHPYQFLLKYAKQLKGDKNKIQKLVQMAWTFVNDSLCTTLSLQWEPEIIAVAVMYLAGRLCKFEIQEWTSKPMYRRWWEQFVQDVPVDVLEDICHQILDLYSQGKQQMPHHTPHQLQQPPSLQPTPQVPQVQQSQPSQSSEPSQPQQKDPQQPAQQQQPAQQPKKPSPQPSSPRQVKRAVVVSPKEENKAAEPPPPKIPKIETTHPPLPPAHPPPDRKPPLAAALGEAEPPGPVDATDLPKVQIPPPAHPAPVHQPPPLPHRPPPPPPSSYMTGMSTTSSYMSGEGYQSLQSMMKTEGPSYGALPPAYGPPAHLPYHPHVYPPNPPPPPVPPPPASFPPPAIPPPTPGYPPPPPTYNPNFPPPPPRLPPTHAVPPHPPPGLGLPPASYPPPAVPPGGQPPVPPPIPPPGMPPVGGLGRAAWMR
CDK7/CycH/MAT1, sequence (P50613 whole entry): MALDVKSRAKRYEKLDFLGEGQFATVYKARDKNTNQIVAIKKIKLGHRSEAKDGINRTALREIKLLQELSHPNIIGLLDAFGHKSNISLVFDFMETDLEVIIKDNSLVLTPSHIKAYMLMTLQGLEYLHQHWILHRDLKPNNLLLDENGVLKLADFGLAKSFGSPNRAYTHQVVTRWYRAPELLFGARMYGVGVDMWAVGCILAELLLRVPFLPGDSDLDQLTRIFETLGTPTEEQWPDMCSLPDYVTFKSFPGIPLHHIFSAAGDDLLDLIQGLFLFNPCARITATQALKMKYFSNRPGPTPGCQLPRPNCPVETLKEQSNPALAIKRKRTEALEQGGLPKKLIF
CDK7/CycH/MAT1, sequence (P51946 whole entry partner): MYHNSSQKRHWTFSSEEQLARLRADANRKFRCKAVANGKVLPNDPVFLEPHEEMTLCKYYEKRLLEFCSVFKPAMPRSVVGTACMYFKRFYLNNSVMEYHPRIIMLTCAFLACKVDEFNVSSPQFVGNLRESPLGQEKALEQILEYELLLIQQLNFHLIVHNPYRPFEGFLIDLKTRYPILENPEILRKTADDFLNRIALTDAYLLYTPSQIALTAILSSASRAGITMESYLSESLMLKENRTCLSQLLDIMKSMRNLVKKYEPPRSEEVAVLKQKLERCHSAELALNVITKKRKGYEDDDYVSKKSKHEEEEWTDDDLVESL
CDK7/CycH/MAT1, sequence (P51948 whole entry partner): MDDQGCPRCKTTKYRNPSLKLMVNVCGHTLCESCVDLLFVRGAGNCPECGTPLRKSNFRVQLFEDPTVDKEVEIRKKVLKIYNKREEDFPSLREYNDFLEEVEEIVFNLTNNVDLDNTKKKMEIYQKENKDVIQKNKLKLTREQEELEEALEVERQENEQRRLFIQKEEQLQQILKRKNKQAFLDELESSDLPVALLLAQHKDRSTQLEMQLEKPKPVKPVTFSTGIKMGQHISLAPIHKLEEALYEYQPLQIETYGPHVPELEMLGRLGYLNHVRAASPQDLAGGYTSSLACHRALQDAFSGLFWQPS

IC50 (CDK12 wt/CycK) [nM] | IC50 (CDK7/CycH/MAT1) [nM] | IC50 (CDK2/CycA2) [nM] | SMILES
≤ 100 | 100 to 1000 | 100 to 1000 | CC#CC(=O)Nc1ccc(C(=O)N2CC[C@@H](Nc3ncc4ccccc4n3)C2)cc1 [Example 77, (R)—N-(4-(3-(quinazolin-2-ylamino)pyrrolidine-1-carbonyl)phenyl)but-2-ynamide]
100 to 1000 | 1000 to 10000 | 1000 to 10000 | C=CC(=O)Nc1ccc(C(=O)N2CC[C@@H](Nc3ncc4ccccc4n3)C2)c(C)c1 [Example 78]
≤ 100 | 100 to 1000 | 100 to 1000 | C=CC(=O)N1CCOc2cc(C(=O)N3CC[C@@H](Nc4ncc5ccccc5n4)C3)ccc21 [Example 80, (R)-1-(7-(3-(quinazolin-2-ylamino)pyrrolidine-1-carbonyl)-2H-benzo[b][1,4]oxazin-4(3H)-yl)prop-2-en-1-one]
100 to 1000 | 100 to 1000 | 1000 to 10000 | COc1cc(C(=O)N2CC[C@@H](Nc3ncc4ccccc4n3)C2)ccc1NC(=O)/C=C/CN(C)C [Example 81, (R,E)-4-(dimethylamino)-N-(2-methoxy-4-(3-(quinazolin-2-ylamino)pyrrolidine-1-carbonyl)phenyl)but-2-enamide]
100 to 1000 | 100 to 1000 | 1000 to 10000 | CN(C)C/C=C/C(=O)Nc1ccc(C(=O)N2CC[C@@H](Nc3ncc4ccccc4n3)C2)cc1Cl [Example 82, (R,E)-N-(2-chloro-4-(3-(quinazolin-2-ylamino)pyrrolidine-1-carbonyl)phenyl)-4-(dimethylamino)but-2-enamide]
100 to 1000 | 100 to 1000 | 1000 to 10000 | CN(C)C/C=C/C(=O)N1CCOc2cc(C(=O)N3CC[C@@H](Nc4ncc5ccccc5n4)C3)ccc21 [Example 84, (R,E)-4-(dimethylamino)-1-(7-(3-(quinazolin-2-ylamino)pyrrolidine-1-carbonyl)-2H-benzo[b][1,4]oxazin-4(3H)-yl)but-2-en-1-one]
100 to 1000 | 100 to 1000 | 100 to 1000 | C=CC(=O)Nc1cccc(C(=O)N2CC[C@@H](Nc3ncc4ccccc4n3)C2)c1 [Example 87, (R)—N-(3-(3-(quinazolin-2-ylamino)pyrrolidine-1-carbonyl)phenyl)acrylamide]
100 to 1000 | 100 to 1000 | 1000 to 10000 | CN(C)C/C=C/C(=O)N1CCCc2cc(C(=O)N3CC[C@@H](Nc4ncc5ccccc5n4)C3)ccc21 [Example 89, (R,E)-4-(dimethylamino)-1-(6-(3-(quinazolin-2-ylamino)pyrrolidine-1-carbonyl)-3,4-dihydroquinolin-1(2H)-yl)but-2-en-1-one]
100 to 1000 | 1000 to 10000 | 1000 to 10000 | C=CC(=O)Nc1ccc(C(=O)N2CC[C@@H](Nc3ncc4c(F)cccc4n3)C2)cc1 [Example 91, (R)—N-(4-(3-((5-fluoroquinazolin-2-yl)amino)pyrrolidine-1-carbonyl)phenyl)acrylamide]

SMILES | IC50 (CDK12 wt/CycK) [nM] | IC50 (CDK7/CycH/MAT1) [nM] | IC50 (CDK2/CycA2) [nM]
C=CC(=O)Nc1ccc(C(=O)N2CC[C@@H](Nc3ncc4cccc(F)c4n3)C2)cc1 [Example 90, (R)—N-(4-(3-((8-fluoroquinazolin-2-yl)amino)pyrrolidine-1-carbonyl)phenyl)acrylamide] | 100 to 1000 | 1000 to 10000 | 1000 to 10000
C=CC(=O)Nc1ccc(C(=O)N2CC[C@@H](Nc3ncc4cc(F)ccc4n3)C2)cc1C [Example 92, (R)—N-(4-(3-((6-fluoroquinazolin-2-yl)amino)pyrrolidine-1-carbonyl)-2-methylphenyl)acrylamide] | ≤ 100 | 1000 to 10000 | 1000 to 10000
C=CC(=O)Nc1ccc(C(=O)N2CC[C@@H](Nc3ncc4ccc(S(C)(=O)=O)cc4n3)C2)cc1C [Example 93, (R)—N-(2-methyl-4-(3-((7-(methylsulfonyl)quinazolin-2-yl)amino)pyrrolidine-1-carbonyl)phenyl)acrylamide] | ≤ 100 | 1000 to 10000 | 100 to 1000

Source: patent US11447493B2 (Kinnate Biopharma Inc., priority 2018, dated 2022)
